Test results taken from patent US12168008B2, “Oxabicycloheptanes for modulation of immune response” (LIXTE BIOTECHNOLOGY, INC., priority 2016, dated 2024).

Tests used:
clinical = format: in vivo, human; settings: for Cmax / AUC / Tmax: endothall after LB-100 2.33 mg/m^2
Experimental: The main objective was to determine the safety, tolerability, and maximum tolerated dose of LB-100 given intravenously daily for three consecutive days every 3 weeks. The secondary objectives were to document any evidence of potential anti-tumor activity and obtain pharmacokinetic data on LB-100 and a metabolite, endothall, in patients receiving LB-100 at the MTD (Quang et al., 2016).
The plasma concentrations of LB-100 and endothall were measured (Quang et al., 2016) prior to and over 4 hours after completion of the 2-hour infusion at the MTD of 2.33 mg/m2 of LB-100 on day 1 in one patient and on day 1 and 3 in two patients. […] Plasma concentrations of endothall were low throughout the infusion, being below the lower limit of detection (5 ng/mL) in one patient.

solid tumor = settings: cited from earlier work
[1] = human, in vivo; cited from earlier work

In the case of `O=C(O)[C@@H]1[C@H](C(=O)O)[C@H]2CC[C@@H]1O2` [endothall], the Cmax (clinical; subject 001-0030, day 1, N-D = below lower limit of quantification (5 ng/ml)) is reported as “N-D^a”, the Cmax (clinical; subject 001-0030, day 3, N-D = below lower limit of quantification (5 ng/ml)) is reported as “N-D^a” and the AUC (clinical; subject 002-0028, day 1) is reported as 22 ng·h/mL. The Cmax (clinical; subject 002-0028, day 1) was 11.5 ng/mL, the Tmax (clinical; subject 002-0028, day 1) was 4 h and the AUC (clinical; subject 002-0028, day 3) was 143 ng·h/mL. The Cmax (clinical; subject 002-0028, day 3) was 34.3 ng/mL, the Tmax (clinical; subject 002-0028, day 3) was 4 h and the AUC (clinical; subject 003-0029, day 1) was 28 ng·h/mL. The Cmax (clinical; subject 003-0029, day 1) was 14.8 ng/mL, the Tmax (clinical; subject 003-0029, day 1) was 4 h and the “plasma concentration of endothall” value (clinical; one patient, after LB-100 2.33 mg/m2, lower limit of detection) was less than 5 ng/mL. The “maximal concentration of endothall” value (clinical; other two patients, last sampling time point (4 h)) was 34.7 ng/mL.
For `C[C@@](O)(/C=C/[C@H]1CC=CC(=O)O1)[C@@H](C[C@@H](O)\C=C/C=C\C=C\CO)OP(=O)(O)O` [fostriecin], the “dose-limiting toxicity (DLT)” value (solid tumor; in vivo) is listed as “without dose-limiting toxicity” and the disease stability (solid tumor; of 46 solid tumor patients) is listed as 16 (34.8%) patients (%).
In the case of “ipilimumab: human cytotoxic T-lymphocyte antigen 4 (CTLA-4)-blocking antibody”, the incidence of death [1] is given as 2.1% and the “patients with grade 3 or 4 adverse events” value [1] is given as “up to 15%”.
